# Where “and” joins values, the source holds several entries; their conditions need not be identical. Equal values may be shown once. Entries after “also recorded” stand apart in the source; their conditions may differ.
# How the values were obtained:
# optic nerve head area = assay: Laser speckle flowgraph (LSFG) evaluation, mean blur rate and pulse waveform; assay type: in vivo, human; conditions: for MS (mean skew): baseline 11.92 ± 3.94; for MS (mean skew) / MBRt (mean blur rate of tissue area) / MF (mean fluctuation) / MATI (mean acceleration time index) / MBRv (mean blur rate of vessel area) / MBOT (mean blowout time) / MBOS (mean blowout score): mean ± SD; for MBRt (mean blur rate of tissue area): baseline 12.65 ± 3.57; for MF (mean fluctuation): baseline 13.76 ± 3.79; for MATI (mean acceleration time index): baseline 32.62 ± 5.80; for MBRv (mean blur rate of vessel area): baseline 40.24 ± 10.65; for MBOT (mean blowout time): baseline 50.53 ± 8.53; for MBOS (mean blowout score): baseline 75.27 ± 6.51; for MBRt (%), percentage of baseline / MBRv (%), percentage of baseline: baseline 100.0 ± 0
# Description: (§1) The patients diagnosed with open angle glaucoma in total are 35 eyes of 20 patients, wherein 10 eyes are diagnosed as POAG, and 25 eyes are NTG, besides 2 eyes had received prior corneal refractive surgery, and 1 eye had undergone cataract extraction and intraocular lens implantation. In the aspect of the medication using, 20 eyes are treatment naïve upon entry of the study (that is they are not using IOP lowering medication), and 15 eyes are previously treated with IOP lowering medication. The IOP lowering medication in the treated patients were requested for the following medication washout period: 4 weeks for beta-blockers and prostaglandin analogues, 2-4 weeks for alpha-agonists, and 1 week for carbonic anhydrase inhibitors in order to eliminate the experimental errors.
# (§2) All patients are received the best corrected visual acuity test (BCVA), IOP measurement, optical coherence tomography (OCT), laser speckle flowgraph (LSFG) evaluation, fundus photo, visual field examination, blood pressure (BP), and heart rate measurement, and then these obtained data are averaged as the baseline data of the experiment, but the intraocular eye disease other than OAG, significant cataract influencing refractive errors or visual field result, systemic disease with resultant visual field defect, and unreliable LSFG results are excluded.
# In the LSFG evaluation, one drop of said emulsion is instilled in the examined eyes at clinic. Afterward, LSFG measurements are repeated at 30 minutes and 2 hours post-LBN instillation. The patients would continuously instill the emulsion once every night for one month, and return to clinic again for another LSFG exam. Laser speckle flowgraph (LSFG-NAVI version 3.1.39.2 software, Softcare Ltd., Fukuoka, Japan) are used to measure the mean blur rate (MBR) of the optic nerve head area for pulse waveform analysis in all patients. Averaged MBR and pulse waveform parameters are documented at each LSFG measurement in order to evaluate the effect of latanoprostene bunod using on microcirculation of optic nerve head.
# [1] = tested on: patients diagnosed with open angle glaucoma; assay: Blood pressure, ocular perfusion pressure and heart rate measurement; assay type: in vivo, human; conditions: for MOPP (mean ocular perfusion pressure): baseline 48.82 ± 7.10; for MOPP (mean ocular perfusion pressure) / MHR (mean heart rate) / MBP (mean blood pressure): mean ± SD; for MHR (mean heart rate): baseline 74.03 ± 8.95; for MBP (mean blood pressure): baseline 99.69 ± 9.90
# Description: as §1, §2
# [2] = tested on: patients diagnosed with open angle glaucoma; assay: IOP measurement after emulsion instillation; assay type: in vivo, human; conditions: baseline 17.68 ± 4.11, mean ± SD
# Description: as §1
# All patients are received the best corrected visual acuity test (BCVA), IOP measurement, optical coherence tomography (OCT), laser speckle flowgraph (LSFG) evaluation, fundus photo, visual field examination, blood pressure (BP), and heart rate measurement, and then these obtained data are averaged as the baseline data of the experiment, but the intraocular eye disease other than OAG, significant cataract influencing refractive errors or visual field result, systemic disease with resultant visual field defect, and unreliable LSFG results are excluded. […]
# [3] = Stability study (ICH Q1A(R2)) of the emulsion; assay type: physicochemical; conditions: accelerated condition
# Description: In this section, stability study is conducted using the abovementioned Example 1 as an example. The stability study is performed according to common practices known such as ICH HARMONISED TRIPARTITE GUIDELINE-Topic Q1A(R2) <Stability Testing of new Drug Substances and Products> and inspection items are screened based on USP chapter 771 and 1771. The stability study is carried out under two conditions: temperature of 5° C.±3° C. with no humidity; and temperature of 25° C.±2° C. with the relative humidity of 60%±5%. LBN content is determined with an HPLC equipped with an UV detector and using a mixture of two mobile phases. The HPLC condition reports as the following: [table]
# [4] = all time points, Wilcoxon signed rank test
smiles,measurement,setting,value
"O=C(CCC/C=C\C[C@@H]1[C@@H](CC[C@@H](O)CCc2ccccc2)[C@H](O)C[C@@H]1O)OCCCCO[N+](=O)[O-] [LBN, Latanoprostene bunod]",MS (mean skew),optic nerve head area; 1 month,10.99 ± 2.30 AU
same,MBRt (mean blur rate of tissue area),optic nerve head area; 1 month,12.67 ± 3.80 AU
same,MF (mean fluctuation),optic nerve head area; 1 month,13.44 ± 3.31 AU
same,MATI (mean acceleration time index),optic nerve head area; 1 month,31.71 ± 4.11%
same,MBRv (mean blur rate of vessel area),optic nerve head area; 1 month,45.49 ± 12.22 AU
same,MBOT (mean blowout time),optic nerve head area; 1 month,52.67 ± 6.62 AU
same,MBOS (mean blowout score),optic nerve head area; 1 month,77.26 ± 6.26 AU
same,"MBRt (%), percentage of baseline",optic nerve head area; 1 month,101.84 ± 15.33%
same,"MBRv (%), percentage of baseline",optic nerve head area; 1 month,113.91 ± 26.53%
same,MS (mean skew),optic nerve head area; 30 minutes,11.84 ± 2.08 AU
same,MBRt (mean blur rate of tissue area),optic nerve head area; 30 minutes,12.48 ± 3.04 AU
same,MF (mean fluctuation),optic nerve head area; 30 minutes,13.94 ± 4.30 AU
same,MATI (mean acceleration time index),optic nerve head area; 30 minutes,31.51 ± 4.04%
same,MBRv (mean blur rate of vessel area),optic nerve head area; 30 minutes,41.95 ± 10.03 AU
same,MBOT (mean blowout time),optic nerve head area; 30 minutes,49.76 ± 6.17 AU
same,MBOS (mean blowout score),optic nerve head area; 30 minutes,74.44 ± 7.60 AU
same,"MBRt (%), percentage of baseline",optic nerve head area; 30 minutes,100.63 ± 14.37%
same,"MBRv (%), percentage of baseline",optic nerve head area; 30 minutes,105.97 ± 16.49%
same,MS (mean skew),optic nerve head area; 2 hours,11.82 ± 2.58 AU
same,MBRt (mean blur rate of tissue area),optic nerve head area; 2 hours,12.73 ± 3.46 AU
same,MF (mean fluctuation),optic nerve head area; 2 hours,13.46 ± 3.95 AU
same,MBRv (mean blur rate of vessel area),optic nerve head area; 2 hours,45.14 ± 10.59 AU
same,MBOT (mean blowout time),optic nerve head area; 2 hours,52.09 ± 5.56 AU
same,MBOS (mean blowout score),optic nerve head area; 2 hours,76.24 ± 6.67 AU
same,"MBRt (%), percentage of baseline",optic nerve head area; 2 hours,101.84 ± 13.71%
same,"MBRv (%), percentage of baseline",optic nerve head area; 2 hours,114.36 ± 20.02% and 114.36 ± 20.2 %
same,"mean blur rate of tissue area (MBRt), difference from baseline",optic nerve head area; [4],not significantly different
same,MOPP (mean ocular perfusion pressure),[1]; 1 month,50.80 ± 12.06 mmHg
same,MHR (mean heart rate),[1]; 1 month,72.03 ± 10.68 min⁻¹
same,MBP (mean blood pressure),[1]; 1 month,98.08 ± 12.06 mmHg
same,MOPP (mean ocular perfusion pressure),[1]; 30 minutes,47.87 ± 8.07 mmHg
same,MBP (mean blood pressure),[1]; 30 minutes,99.62 ± 11.54 mmHg
same,MOPP (mean ocular perfusion pressure),[1]; 2 hours,48.65 ± 9.48 mmHg
same,MHR (mean heart rate),[1]; 2 hours,77.77 ± 11.11 min⁻¹
same,MBP (mean blood pressure),[1]; 2 hours,98.88 ± 14.12 mmHg
same,"mean blood pressure (MBP), difference from baseline",[1]; [4],not significantly different
same,"mean ocular perfusion pressure (MOPP), difference from baseline",[1]; [4],not significantly different; also recorded: has not differed
same,MIOP (mean intraocular pressure),[2]; 30 minutes after instillation,18.29 ± 4.00 mmHg
same,MIOP (mean intraocular pressure),[2]; 2 hours after instillation,17.24 ± 4.14 mmHg
same,assay of LBN upon storage,[3],remained unchanged

# Reference: patent US20230330104A1, “PRESERVATIVE-FREE OPHTHALMIC PHARMACEUTICAL EMULSION AND ITS APPLICATION” (Caravel Therapeutics, Inc., priority 2022, published 2023)
